In ChEMBL document CHEMBL1909046, “DrugMatrix in vitro pharmacology data”:

Columns and labels:
Progesterone receptor = biological target: T1, Progesterone receptor (Bos taurus, UniProt Q690N0); assay: DRUGMATRIX: Progesterone radioligand binding (ligand: [3H] R-5020); type: tissue-based, Uterus; conditions: Not Active = under 50% inhibition at 10 µM; for Ki: read-out: Ki
T1 sequence (Q690N0 whole entry): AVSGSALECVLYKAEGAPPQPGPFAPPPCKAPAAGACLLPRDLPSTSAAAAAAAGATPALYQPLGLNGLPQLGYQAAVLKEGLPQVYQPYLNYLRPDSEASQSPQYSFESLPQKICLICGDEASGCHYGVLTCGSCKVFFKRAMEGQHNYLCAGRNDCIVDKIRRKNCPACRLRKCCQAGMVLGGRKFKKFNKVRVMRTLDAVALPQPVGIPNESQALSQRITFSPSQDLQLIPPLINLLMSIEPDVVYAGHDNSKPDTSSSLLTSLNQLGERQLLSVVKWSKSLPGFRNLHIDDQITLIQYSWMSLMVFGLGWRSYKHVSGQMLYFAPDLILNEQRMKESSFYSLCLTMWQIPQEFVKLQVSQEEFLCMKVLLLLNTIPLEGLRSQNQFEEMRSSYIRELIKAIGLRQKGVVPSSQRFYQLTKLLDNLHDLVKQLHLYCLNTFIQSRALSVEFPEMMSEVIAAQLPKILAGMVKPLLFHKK

[1] = biological target: Kappa-type opioid receptor (Homo sapiens, UniProt P41145); assay: DRUGMATRIX: Opiate kappa (OP2, KOP) radioligand binding (ligand: [3H] Diprenorphine); type: cell membranes, HEK293, Membrane; conditions: Not Active = under 50% inhibition at 10 µM
Sequence of Kappa-type opioid receptor (P41145 whole entry): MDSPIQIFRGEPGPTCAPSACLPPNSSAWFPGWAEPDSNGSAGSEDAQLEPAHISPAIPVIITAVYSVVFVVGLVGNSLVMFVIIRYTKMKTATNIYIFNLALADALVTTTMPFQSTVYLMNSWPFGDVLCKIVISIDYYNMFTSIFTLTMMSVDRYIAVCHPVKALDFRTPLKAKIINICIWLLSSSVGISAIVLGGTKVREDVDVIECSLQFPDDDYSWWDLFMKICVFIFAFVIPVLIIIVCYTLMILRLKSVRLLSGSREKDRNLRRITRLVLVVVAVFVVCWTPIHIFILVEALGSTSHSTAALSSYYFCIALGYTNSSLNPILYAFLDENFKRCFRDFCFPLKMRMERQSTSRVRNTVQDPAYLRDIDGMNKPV

[2] = biological target: 5-hydroxytryptamine receptor 2B (Homo sapiens, UniProt P41595); type: cell membranes, CHO-K1, Membrane; conditions: for Ki: read-out: Ki; for all read-outs here: in other assays of this panel Not Active means under 50% inhibition at 10 µM
Sequence of 5-hydroxytryptamine receptor 2B (P41595 whole entry): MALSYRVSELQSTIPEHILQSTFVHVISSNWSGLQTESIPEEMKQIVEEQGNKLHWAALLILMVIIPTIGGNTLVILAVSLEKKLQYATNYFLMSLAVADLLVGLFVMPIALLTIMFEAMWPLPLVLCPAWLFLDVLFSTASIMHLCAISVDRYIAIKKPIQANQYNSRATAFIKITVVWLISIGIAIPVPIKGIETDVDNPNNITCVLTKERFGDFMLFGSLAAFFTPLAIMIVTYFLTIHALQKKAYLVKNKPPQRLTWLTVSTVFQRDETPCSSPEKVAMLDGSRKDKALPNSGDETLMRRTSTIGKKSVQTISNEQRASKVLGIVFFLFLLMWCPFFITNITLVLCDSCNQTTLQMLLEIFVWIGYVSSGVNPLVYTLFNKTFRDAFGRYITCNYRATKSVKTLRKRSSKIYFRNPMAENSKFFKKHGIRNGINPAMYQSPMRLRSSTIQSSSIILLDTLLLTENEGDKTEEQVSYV

[3] = biological target: T2, Alpha-1B adrenergic receptor (Rattus norvegicus, UniProt P15823); assay: DRUGMATRIX: Alpha-1B adrenergic receptor radioligand binding (ligand: prazosin); type: cell membranes, Wistar, Liver, Membrane; conditions: Not Active = under 50% inhibition at 10 µM
T2 sequence (P15823 whole entry): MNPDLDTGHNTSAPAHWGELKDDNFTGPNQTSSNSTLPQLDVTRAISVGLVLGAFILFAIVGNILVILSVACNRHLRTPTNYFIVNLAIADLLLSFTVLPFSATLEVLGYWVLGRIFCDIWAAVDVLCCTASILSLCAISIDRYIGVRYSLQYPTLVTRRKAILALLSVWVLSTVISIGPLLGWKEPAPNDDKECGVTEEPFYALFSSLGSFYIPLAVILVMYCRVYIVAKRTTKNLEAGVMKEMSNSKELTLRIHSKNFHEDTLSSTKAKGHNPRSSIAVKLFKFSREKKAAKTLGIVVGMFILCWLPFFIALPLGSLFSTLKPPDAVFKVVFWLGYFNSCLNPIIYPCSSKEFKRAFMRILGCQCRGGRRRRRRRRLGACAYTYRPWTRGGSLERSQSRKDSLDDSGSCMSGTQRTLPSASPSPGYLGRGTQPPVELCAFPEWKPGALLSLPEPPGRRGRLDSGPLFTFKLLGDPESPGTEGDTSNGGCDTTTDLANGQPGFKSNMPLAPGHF

SMILES	IC50 (Progesterone receptor)	IC50 ([1]; hek293)	IC50 ([2]; cho-k1)	IC50 [3]	also measured
Cc1cc2c(s1)Nc1ccccc1N=C2N1CCN(C)CC1 [OLANZAPINE]	Not Active	Not Active	–	–	–
CC1(C)[C@H](C(=O)O)N2C(=O)C[C@H]2S1(=O)=O [SULBACTAM]	Not Active	Not Active	Not Active	Not Active	–
O=C1CC[C@@]2(O)[C@H]3Cc4ccc(O)c5c4[C@@]2(CCN3CC2CC2)[C@H]1O5 [NALTREXONE]	Not Active	–	Not Active	Not Active	–
Cc1cn([C@H]2C=C[C@@H](CO)O2)c(=O)[nH]c1=O [STAVUDINE]	Not Active	Not Active	Not Active	Not Active	–
CC1=C(/C=C/C(C)=C/C=C/C(C)=C/C(=O)O)C(C)(C)CCC1 [TRETINOIN]	Not Active	Not Active	–	Not Active	IC50 ([2]; read-out: IC50): 358 nM; Ki [2]: 228 nM
CN1C(=O)OC(C)(C)C1=O [TRIMETHADIONE]	Not Active	Not Active	Not Active	Not Active	–
Cc1ccc(S(=O)(=O)NC(=O)NN2CCCCCC2)cc1 [TOLAZAMIDE]	Not Active	Not Active	Not Active	Not Active	–
O=C(O)c1cc(/N=N/c2ccc(S(=O)(=O)Nc3ccccn3)cc2)ccc1O [SULFASALAZINE]	Not Active	Not Active	Not Active	Not Active	–
CS(=O)(=O)c1ccc(C2=C(c3ccccc3)C(=O)OC2)cc1 [ROFECOXIB]	Not Active	Not Active	Not Active	Not Active	–
Cc1cnc(NC(=O)C2=C(O)c3ccccc3S(=O)(=O)N2C)s1 [MELOXICAM]	Not Active	Not Active	Not Active	Not Active	–
C1CCN2C[C@@H]3C[C@@H](CN4CCCC[C@@H]34)[C@H]2C1 [SPARTEINE]	Not Active	–	Not Active	Not Active	–
CO[C@@H]1[C@@H](OC)[C@H](C)[C@@](O)(CC(=O)O)O[C@H]1[C@H](C)[C@H]1O[C@@]2(CC[C@@](C)([C@H]3CC[C@@](C)([C@@H]4O[C@@H]([C@H]5O[C@](C)(O)[C@H](C)C[C@@H]5C)C[C@@H]4O[C@@H]4C[C@H](OC)[C@@H](OC)[C@H](C)O4)O3)O2)C[C@H](O)[C@H]1C.N [MADURAMICIN]	Not Active	Not Active	Not Active	–	–
CC[C@@]1(O)C(=O)OCc2c1cc1n(c2=O)Cc2cc3c(CN(C)C)c(O)ccc3nc2-1 [TOPOTECAN]	Not Active	Not Active	Not Active	Not Active	–
C[N+]1(C)[C@@H]2C[C@@H](OC(=O)[C@H](CO)c3ccccc3)C[C@H]1[C@@H]1O[C@@H]12.[Br-] [METHSCOPOLAMINE BROMIDE]	Not Active	–	Not Active	Not Active	–
C[C@]12CCC(=O)C[C@@H]1CC[C@@H]1[C@@H]2CC[C@]2(C)[C@@H](O)CC[C@@H]12 [STANOLONE]	–	Not Active	Not Active	Not Active	IC50 (Progesterone receptor; read-out: IC50): 1250 nM; Ki (Progesterone receptor): 163 nM
CC(N)C12CC3CC(CC(C3)C1)C2 (stereo not drawn) [RIMANTADINE]	Not Active	Not Active	Not Active	Not Active	–
Cc1cccc(C)c1NC(=O)C(C)N (stereo not drawn) [TOCAINIDE]	–	Not Active	Not Active	Not Active	–

SMILES	IC50 (Progesterone receptor)	IC50 ([1]; hek293)	IC50 ([2]; cho-k1)	IC50 [3]	also measured
CCN(CC)N=O [N-NITROSODIETHYLAMINE]	Not Active	–	Not Active	Not Active	–
CNCCCC12CCC(c3ccccc31)c1ccccc12 [MAPROTILINE]	Not Active	Not Active	–	–	–
CCC(C)(C)C(=O)O[C@H]1C[C@@H](C)C=C2C=C[C@H](C)[C@H](CC[C@@H]3C[C@@H](O)CC(=O)O3)[C@H]21 [SIMVASTATIN]	Not Active	Not Active	Not Active	Not Active	–
CN1C[C@H](CNC(=O)OCc2ccccc2)C[C@@H]2c3cccc4c3c(cn4C)C[C@H]21 [METERGOLINE]	Not Active	Not Active	–	–	IC50 ([3]; read-out: IC50): 262 nM; Ki ([3]; read-out: Ki): 145 nM
CCN(CC)CCNC(=O)c1cc(Cl)c(N)cc1OC [METOCLOPRAMIDE]	Not Active	Not Active	–	Not Active	IC50 ([2]; read-out: IC50): 630 nM; Ki [2]: 401 nM
Cc1ccc(Cl)c(Nc2ccccc2C(=O)O)c1Cl [MECLOFENAMIC ACID]	Not Active	Not Active	Not Active	Not Active	–
CO[C@@]12[C@H](COC(N)=O)C3=C(C(=O)C(C)=C(N)C3=O)N1C[C@@H]1N[C@@H]12 [MITOMYCIN]	Not Active	Not Active	Not Active	Not Active	–
Cc1[nH]c(=O)c(C#N)cc1-c1ccncc1 [MILRINONE]	–	Not Active	Not Active	Not Active	–
CC#C[C@]1(O)CC[C@H]2[C@@H]3CCC4=CC(=O)CCC4=C3[C@@H](c3ccc(N(C)C)cc3)C[C@@]21C [MIFEPRISTONE]	–	–	Not Active	Not Active	Ki [1]: 8040 nM; IC50 ([1]; read-out: IC50): 20100 nM
CC(O)C(=O)O (stereo not drawn) [LACTIC ACID]	Not Active	Not Active	Not Active	Not Active	–
Cc1ccnc(NS(=O)(=O)c2ccc(N)cc2)n1 [SULFAMERAZINE]	Not Active	Not Active	Not Active	Not Active	–
CC(C)(C)NC[C@H](O)COc1cccc2c1CCCC2=O [LEVOBUNOLOL]	Not Active	Not Active	Not Active	Not Active	–
CC(=O)O[C@]1(C(C)=O)CC[C@H]2[C@@H]3C[C@H](C)C4=CC(=O)CC[C@]4(C)[C@H]3CC[C@@]21C [MEDROXYPROGESTERONE ACETATE]	–	Not Active	Not Active	Not Active	IC50 (Progesterone receptor; read-out: IC50): 2.25 nM; Ki (Progesterone receptor): 0.293 nM
OC[C@@H](O)[C@@H](O)[C@H](O)[C@H](O)CO [MANNITOL]	Not Active	–	Not Active	Not Active	–
CC(Cl)(Cl)Cl [TRICHLOROETHANE]	Not Active	–	Not Active	Not Active	–
O=C(c1ccccc1)c1ccc2n1CCC2C(=O)O (stereo not drawn) [KETOROLAC]	Not Active	Not Active	Not Active	Not Active	–
